Assay results reported in the OligoGym collection.
Values joined by “and” are separate entries in the source; they are usually repeats but may differ in a detail not shown here. Equal values may be shown once. After the bases stand the sugars from the 5' end (letter, count) and the backbone: PS all phosphorothioate, else s phosphorothioate and o phosphodiester by linkage. Methylation of C is not given here. e = 2'-O-(2-methoxyethyl) (MOE); k = constrained ethyl (cEt); d = 2'-deoxy (DNA)

The sequences below were run against IRF4. Conditions: ASO, MM.1R, 0.074 µM.

In order of rising target mRNA inhibition:
1. AGTTGTAAATGAGTCG (sugars kkdddddddddkekek, PS)  10%
2. TAGTGTTCCAGGAGAT (sugars k3 d10 k3, PS)  15%
3. TCAGTTTGTGAAGCAT (sugars k3 d9 k3 e1, PS)  28%

Same assay, conditions: ASO, MM.1R, 0.222 µM

In order of falling target mRNA inhibition:
1. AGTTGTAAATGAGTCG (sugars kkdddddddddkekek, PS)  31%
2. TAGTGTTCCAGGAGAT (sugars k3 d10 k3, PS)  29%
3. TCAGTTTGTGAAGCAT (sugars k3 d9 k3 e1, PS)  22%

Same assay, conditions: ASO, MM.1R, 0.666 µM

In order of rising target mRNA inhibition:
1. TCAGTTTGTGAAGCAT (sugars k3 d9 k3 e1, PS)  43%
2. AGTTGTAAATGAGTCG (sugars kkdddddddddkekek, PS)  47%
3. TAGTGTTCCAGGAGAT (sugars k3 d10 k3, PS)  52%

Same assay, conditions: ASO, MM.1R, 1 µM

In order of falling target mRNA inhibition:
1. TCAGTTTGTGAAGCAT (sugars k3 d9 k3 e1, PS)  58%
2. AGTTGTAAATGAGTCG (sugars kkdddddddddkekek, PS)  56%
3. TAGTGTTCCAGGAGAT (sugars k3 d10 k3, PS)  53%
4. AGTTGTAAATGAGTCG (sugars e1 k2 d9 k2 e2, PS)  49%
5. TAGTATGAGAAACGGC (sugars kkddddddddddkeke, PS)  46%
6. TGCTTGAGGTTTTCCT (sugars kkdddddddddkdkdk, PS)  45%
7. TCAGTTTGTGAAGCAT (sugars kkkddddddddkekek, PS)  41%
8. ACTTTTAGAGAGGAGA (sugars kkkdddddddddkeke, PS)  41%
9. GTAGTATGAGAAACGG (sugars k3 d9 k3 e1, PS)  40%
10. ACTGCTTGAGGTTTTC (sugars kkdddddddddekeke, PS)  40%
11. ACTTTTAGAGAGGAGA (sugars kddddddddddkekek, PS)  32%
12. GGGTGGCATCATGTAG (sugars k3 d10 k3, PS)  27%
13. AGTGATGTCAGGTTTT (sugars kddddddddddkekek, PS)  25%
14. GTGCTCATGGCTGATA (sugars k3 d10 k3, PS)  24%
15. GGAAGTTTACACTGGA (sugars kkdddddddddkdkdk, PS)  24%
16. GATAGATCTGTGGTAA (sugars k3 d10 k3, PS)  22%
17. CCTCAGTTTGTGAAGC (sugars kkdddddddddekeke, PS)  21%
18. AGCTTGATAAAGGCTG (sugars kkdddddddddkekek, PS)  16%
19. TTGCTAGATTCTCCCT (sugars k3 d10 k3, PS)  16%
20. TACTGCTTGAGGTTTT (sugars k3 d9 k3 e1, PS)  13%
21. GATTATATACTGGTTG (sugars kdddddddddkekeke, PS)  12%
22. CTAATGGTGCTCCTAA (sugars k3 d10 k3, PS)  4%
23. AGACAAGTGCCCATCC (sugars k3 d10 k3, PS)  1%
24. TTTTGGCTCCCTCAGG (sugars k3 d10 k3, PS)  -3%
25. TGTGAACCTGCTAAAG (sugars k3 d10 k3, PS)  -10%
26. CTGCAAACGACAAGTG (sugars k3 d10 k3, PS)  -18%
27. CCCCAGCTATGCTCTA (sugars k3 d10 k3, PS)  -30%

With GTGCTTGCCAAGCCTA (sugars k3 d10 k3, PS) the target mRNA inhibition was 27% and 36%.
With “AGTTCATGTAAAGTCT (sugars kkdddddddddkdkdk, PS)” the target mRNA inhibition was 32% and 47%.
In the case of “TACTGTTACCGATGCT (sugars kkddddddddddkeke, PS)”, the target mRNA inhibition is reported as 24% and 17%.
For AGGTCTGAGTTGTACA (sugars k3 d10 k3, PS), the target mRNA inhibition was 55% and 45%.
ATGGTATTTTTCCGTT (sugars k3 d10 k3, PS) was tested, and the target mRNA inhibition was 32% and 43%.
“GCACATCAATGTTTTA (sugars kkdddddddddkekek, PS)” was tested, and the target mRNA inhibition was 18% and 15%.
In the case of “GGCACATCAATGTTTT (sugars kdddddddddkekeke, PS)”, the target mRNA inhibition is reported as 9% and 6%.

Same assay, conditions: ASO, MM.1R, 2 µM

In order of falling target mRNA inhibition:
1. TAGTGTTCCAGGAGAT (sugars k3 d10 k3, PS)  80%
2. AGTTGTAAATGAGTCG (sugars kkdddddddddkekek, PS)  66%
3. TCAGTTTGTGAAGCAT (sugars k3 d9 k3 e1, PS)  64%

Same assay, conditions: ASO, SK-MEL-28, 4 µM

In order of falling target mRNA inhibition:
1. TGGACACTTTTAGAGA (sugars k3 d10 k3, PS)  72%
2. TGTAGTATGAGAAACG (sugars k3 d10 k3, PS)  69%
3. ATGTATACATCACTGC (sugars k3 d10 k3, PS)  67%
4. TCATGATGTATACCAA (sugars k3 d10 k3, PS)  65%
5. TTAAGATTTATGTTCC (sugars k3 d10 k3, PS)  64%
6. CGCAATCTTCTGCTGA (sugars k3 d10 k3, PS)  64%
7. GCTACAAAGAGCACTG (sugars k3 d10 k3, PS)  63%
8. ACTTAAGCAAGTGGAG (sugars k3 d10 k3, PS)  63%
9. TCTTATGCATGTTCCT (sugars k3 d10 k3, PS)  62%
10. ATCCATGTTGCATGGC (sugars k3 d10 k3, PS)  61%
11. ACGAGGTAAATCTTCA (sugars k3 d10 k3, PS)  61%
12. CATAGAGCCAGAGCAG (sugars k3 d10 k3, PS)  60%
13. CTTGAAAAGCCAATGC (sugars k3 d10 k3, PS)  58%
14. GCTCATGTTTTTTGAC (sugars k3 d10 k3, PS)  56%
15. CGCCATGGCTGATCGC (sugars k3 d10 k3, PS)  53%
16. CTTAATTCTGGGTTAA (sugars k3 d10 k3, PS)  53%
17. GTTGACACAGGAGCCG (sugars k3 d10 k3, PS)  53%
18. GTGGACACTTTTAGAG (sugars k3 d10 k3, PS)  52%
19. GGGCATGTGACTGGAG (sugars k3 d10 k3, PS)  50%
20. GCCTTAATGTTCAGCT (sugars k3 d10 k3, PS)  49%
21. CTGTAGGGCGACTAAC (sugars k3 d10 k3, PS)  49%
22. TTGTGGACACTTTTAG (sugars k3 d10 k3, PS)  49%
23. TTACTTAGACATTACT (sugars k3 d10 k3, PS)  48%
24. CTAGATTGTAGGACAG (sugars k3 d10 k3, PS)  48%
25. ACATATTCAATGCACC (sugars k3 d10 k3, PS)  47%
26. CCTACAAAATGCCTCC (sugars k3 d10 k3, PS)  47%
27. CTACTTCAGCTACATT (sugars k3 d10 k3, PS)  47%
28. CAGATAGTTAAGTACT (sugars k3 d10 k3, PS)  44%
29. TAAACAAGATGAATCC (sugars k3 d10 k3, PS)  44%
30. TGATAAAGGCTGAACT (sugars k3 d10 k3, PS)  41%
31. ACATTACTAGATTGTA (sugars k3 d10 k3, PS)  41%
32. CGCTGGACAGCCAAAC (sugars k3 d10 k3, PS)  41%
33. TAAACAGTGCCCAAGC (sugars k3 d10 k3, PS)  41%
34. GGCTAAACCTGGCACC (sugars k3 d10 k3, PS)  40%
35. TCGGTCCACATACCTG (sugars k3 d10 k3, PS)  39%
36. TTTATATATGACGACT (sugars k3 d10 k3, PS)  39%
37. CCAAAGTTACATCCTA (sugars k3 d10 k3, PS)  39%
38. CTTACTAGGTGCTTGT (sugars k3 d10 k3, PS)  38%
39. TGGACCCACGAAGATT (sugars k3 d10 k3, PS)  38%
40. TTTATGGACCACGCAG (sugars k3 d10 k3, PS)  38%
41. CTTTTTAGTTCATACC (sugars k3 d10 k3, PS)  37%
42. TGCATAGTGATGAGAT (sugars k3 d10 k3, PS)  37%
43. TAGGAGTGTAACTGAG (sugars k3 d10 k3, PS)  37%
44. CCAAGAGGTGCGAGTA (sugars k3 d10 k3, PS)  33%
45. GGCACATGAGAAATCA (sugars k3 d10 k3, PS)  33%
46. CCCATTTAATCTGTCT (sugars k3 d10 k3, PS)  33%
47. ACAGGAGCCGCTACAG (sugars k3 d10 k3, PS)  31%
48. GCTAAACTCCTAAGTA (sugars k3 d10 k3, PS)  30%
49. TATTACCATGCATAGT (sugars k3 d10 k3, PS)  30%
50. CTAGTTTAAGGGTTAC (sugars k3 d10 k3, PS)  27%
51. TGCTAGGATTCCTAAC (sugars k3 d10 k3, PS)  26%
52. GAAGAAGGCACCTTCG (sugars k3 d10 k3, PS)  25%
53. TCACCTGGCAACCTGC (sugars k3 d10 k3, PS)  25%
54. GGAGACACATACATTT (sugars k3 d10 k3, PS)  22%
55. AAGACTATTAGATAAG (sugars k3 d10 k3, PS)  22%
56. ACTGAGATATCCTGCA (sugars k3 d10 k3, PS)  19%
57. AATGTCACGCCCGCAA (sugars k3 d10 k3, PS)  19%
58. TTAGAGGACAGTGACT (sugars k3 d10 k3, PS)  18%
59. TAAGGAACAAGTGTAT (sugars k3 d10 k3, PS)  18%
60. AGTGACCACGAGGCCC (sugars k3 d10 k3, PS)  15%
61. AGCTAAACTCCTAAGT (sugars k3 d10 k3, PS)  15%
62. GTGGAACTCTAGTGTC (sugars k3 d10 k3, PS)  12%
63. AGATAGTTAAGTACTT (sugars k3 d10 k3, PS)  11%
64. ACACATTAAAGGGTAA (sugars k3 d10 k3, PS)  11%
65. CGCCGGACCCCGGAGC (sugars k3 d10 k3, PS)  9%
66. TACAAAAACTTGGGTC (sugars k3 d10 k3, PS)  9%
67. CCAACTTAAAATCCAC (sugars k3 d10 k3, PS)  9%
68. GAGCACCGCGCCGGAG (sugars k3 d10 k3, PS)  7%
69. CCCCTCTCCAGGTGGC (sugars k4 d8 k4, PS)  -1%
70. AATGGAGCATCCGCTT (sugars k3 d10 k3, PS)  -7%
71. TCCCCGTATCAAAAAA (sugars k3 d10 k3, PS)  -12%

In the case of GACACATTTTCTGGGT (sugars k3 d10 k3, PS), the target mRNA inhibition is reported as 53% and 64%.
